{"source": "patent US20120122870A1", "about": "“Treatment Of Ischemia-Reperfusion Injury” (MUSC FOUNDATION FOR RESEARCH DEVELOPMENT, priority 2009, published 2012)", "key": {"hepatic warm IR in mice": {"test_system": "hepatic warm IR in mice", "test": "Serum ALT and total bilirubin after hepatic warm IR", "type": "in vivo", "procedure": "Liver warm ischemia was induced as described above. Blood was collected at 6 h after reperfusion, and serum alanine aminotransferase (ALT) activity and bilirubin were measured. Before ischemia, serum ALT levels were 22 U/L. At 6 h after reperfusion, ALT levels increased to ˜19,000 U/L in livers exposed to 1 h-ischemia (FIG. 12A). Pretreatment of the animals with ABC294640 decreased ALT levels after IR to ˜1,600 U/L, which reflects a >90% decrease compared to livers without ABC294640 treatment (FIG. 12A). […] Bilirubin accumulates in the blood when liver function is poor. Serum total bilirubin was 0.26 mg/dL in mice subjected to the sham operation. Bilirubin increased 3-fold 6 h after reperfusion (FIG. 12B). […] Clinical chemistry: Blood samples were collected from the vena cava at various times, and ALT and bilirubin were measured enzymatically using analytic kits from Pointe Scientific."}, "[1]": {"test_system": "non-heart-beating liver transplantation in Lewis rats", "test": "Non-heart-beating donor liver transplantation, graft necrosis (H+E)", "type": "in vivo", "conditions": "30-min aorta clamping, 4-hour cold storage; grafts harvested 18 h after implantation", "from_the_text": "ABC294640 improves the outcome of non-heart-beating liver transplantation. The severe donor organ shortage could be reduced by the use of marginal livers for transplantation. Currently only livers from brain-dead, heart-beating donors (HBD) are used for transplantation since liver grafts from non-heart-beating donors frequently fail after transplantation. Development of a method to improve survival of grafts from NHBD is critical to expand the usable liver donor pool. Grafts from NHBD experience longer warm ischemia before liver retrieval, which likely upregulates SK to a higher extent compared to those from HBD. Therefore, we performed a pilot study to test if ABC294640 improves the outcome of non-heart-beating liver transplantation. Livers were explanted from Lewis rats after 30-min of aorta clamping to mimic non-heart-beating donation and implanted after 4-hour storage in UW solution at 0-1° C. […] In cold-stored, untransplanted livers from NHBD, although some cell swelling was observed, no necrosis occurred (FIG. 19, upper right). After transplantation of livers from HBD, small focal necrosis occurred (FIG. 19, middle left). […] Necrotic areas in sections were quantified by image analysis using an Image-1/AT image acquisition and analysis system (Universal Imaging Corp., West Chester, Pa.) incorporating an Axioskop 50 microscope (Carl Zeiss, Inc., Thornwood, NY) and a 10× objective lens."}, "[2]": {"test_system": "PMN infiltration in liver", "test": "PMN infiltration (MPO immunohistochemistry) after hepatic warm IR", "type": "in vivo, mice", "procedure": "ABC294640 prevents hepatic warm ischemia-reperfusion (IR)-induced polymorphonuclear leukocyte (PMN) infiltration in mice. Hepatic warm ischemia was induced by clamping the mouse hepatic artery and portal vein to the upper three lobes of the liver as described in the original application. One hour later, the ischemic liver was reperfused by opening the vascular clamp. Livers were collected 6 h later and myeloperoxidase (MPO), a marker of PMNs, was detected immunohistochemically. MPO-positive cells were counted in 10 fields selected randomly per slide in a blinded manner to assess PMN infiltration. MPO-positive cells were ˜1/high power field (hpf) in livers from sham-operated mice (FIG. 16). Six hours after reperfusion, MPO-positive cells increased almost 10-fold, indicating pronounced inflammation. […] ABC294640 (50 mg/kg, i.g. once) decreased PMN infiltration by ˜70% at 6 h after reperfusion (FIG. 16). Livers from mice exposed to one dose of ABC294640 had lower PMN infiltration compared to the untreated mice even at 2 weeks after reperfusion. […] Immunohistochemistry: Sections were deparaffinized in xylene, rehydrated in a series of graded alcohol concentrations and placed in phosphate buffered saline with 0.1% Tween-20. […] Appropriate peroxidase-conjugated secondary antibodies (DAKO Corp.) were then applied, followed by 3,3′-diaminobenzidine chromagen as the peroxidase substrate. A light counterstain of Meyer's hematoxylin was applied."}, "[3]": {"test_system": "phosphorylated p65 subunit of NF-κB", "test": "Phosphorylated p65 NF-κB immunoblot after hepatic warm IR", "type": "in vivo, mice", "conditions": "livers harvested 2 h after IR", "procedure": "ABC294640 prevents hepatic warm IR-induced tumor necrosis factor-α (TNFα) formation and NF-κB activation. Toxic cytokine formation and inflammatory processes play important roles in IR injury, and S1P is well known to promote inflammation. Accordingly, we investigated whether ABC294640 affects the expression of the pro-inflammatory cytokine TNFα after IR. Livers were harvested at 2 h after reperfusion and TNFα mRNA was detected by quantitative real time PCR. TNFα mRNA increased ˜10-fold after IR (FIG. 15, upper). ABC294640 blunted this increase in TNFα mRNA by ˜50%. NF-κB activation is involved in inflammatory cytokine formation and upregulation of adhesion molecules. After IR, phosphorylation of p65 subunit of NF-κB increased markedly, indicating NF-κB activation. This effect was also blunted by ABC294640 (FIG. 15 lower) which is consistent with our previous studies of NF-κB activation. Western blotting: Briefly, liver tissue was homogenized in a 0.1% Triton-X100 buffer containing a protease inhibitor cocktail, and the extract was centrifuged at 12,000×g for 10 min at 4° C. […] Expression of the protein of interest was quantified by the density of Western blot images by densitometry and standardized by house keeping gene actin."}}, "note": "“Also recorded” adds a separate entry of the source.", "data": [{"smiles": "O=C(NCc1ccncc1)C12CC3CC(C1)CC(c1ccc(Cl)cc1)(C3)C2", "note": "[ABC294640, 3-(4-chlorophenyl)-N-(pyridin-4-ylmethyl)adamantane-1-carboxamide]", "values": [{"measurement": "liver function / hepatic IR injury (in words)", "setting": "hepatic warm IR in mice; 1 h-ischemia plus 6 h-reperfusion", "result": "markedly decreases hepatic IR injury; also recorded: improves liver function"}, {"measurement": "decrease of ALT compared to livers without treatment", "setting": "hepatic warm IR in mice; 1 h-ischemia, 6 h after reperfusion", "result": "> 90", "unit": "%"}, {"measurement": "accumulation of serum total bilirubin", "setting": "hepatic warm IR in mice; 6 h after reperfusion", "result": "almost completely reversed"}, {"measurement": "serum ALT levels after IR", "setting": "hepatic warm IR in mice; pretreatment 50 mg/kg, 1 h-ischemia, 6 h after reperfusion", "result": "~1,600 U/L"}, {"measurement": "necrotic areas in transplanted livers from non-heart-beating donors", "setting": "[1]", "result": "substantially decreased; also recorded: attenuates necrosis"}, {"measurement": "decrease of PMN infiltration (MPO-positive cells)", "setting": "[2]; 50 mg/kg, i.g. once, 6 h after reperfusion", "result": "~70", "unit": "%"}, {"measurement": "PMN infiltration after hepatic IR (in words)", "setting": "[2]; livers harvested 6 h or 2 weeks after IR", "result": "inhibits PMN infiltration"}, {"measurement": "PMN infiltration compared to untreated mice", "setting": "[2]; one dose, 2 weeks after reperfusion", "result": "lower"}, {"measurement": "phosphorylation of p65 subunit of NF-κB (NF-κB activation)", "setting": "[3]", "result": "blunts"}]}]}
